We go through 2 compounds from ChEMBL document CHEMBL4507288 (2021).

Test [1] deals with Histamine H2 receptor (Homo sapiens, UniProt P25021). The experiment in a line: GPCRScan assay: inhibition of H2. Set-up: radioligand conc. used [nm] 0.02 – 0.05, parental cells Stable HEK.
The target of test [2] is AP2-associated protein kinase 1 (Homo sapiens) (UniProt Q2M2I8). Conditions: Compound concentration 1000.0 nM.
For test [3], the system named is Tyrosine-protein kinase ABL1 (Homo sapiens), P00519 [F317L]. As to conditions: Compound concentration 1000.0 nM.
For test [4], the target named is Bone morphogenetic protein receptor type-1A (Homo sapiens) (UniProt P36894). Conditions: Compound concentration 1000.0 nM.
The target of test [5] is Calcium/calmodulin-dependent protein kinase type 1G (Homo sapiens) (UniProt Q96NX5). Conditions: Compound concentration 1000.0 nM.
Calcium/calmodulin-dependent protein kinase type 1G (Homo sapiens), sequence (Q96NX5 whole entry): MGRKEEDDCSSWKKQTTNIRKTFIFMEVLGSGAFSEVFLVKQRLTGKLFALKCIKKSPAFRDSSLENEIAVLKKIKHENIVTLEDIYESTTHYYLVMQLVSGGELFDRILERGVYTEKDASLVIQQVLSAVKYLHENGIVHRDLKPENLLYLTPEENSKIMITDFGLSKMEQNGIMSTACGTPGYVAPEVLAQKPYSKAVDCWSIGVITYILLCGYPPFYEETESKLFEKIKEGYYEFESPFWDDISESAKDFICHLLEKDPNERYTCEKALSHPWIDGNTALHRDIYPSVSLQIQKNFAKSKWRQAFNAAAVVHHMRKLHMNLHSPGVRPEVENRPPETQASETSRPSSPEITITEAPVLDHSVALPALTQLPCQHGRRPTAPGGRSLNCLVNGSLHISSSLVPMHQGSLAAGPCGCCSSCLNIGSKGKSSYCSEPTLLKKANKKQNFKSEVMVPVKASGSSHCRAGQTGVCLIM
The target of test [6] is Dual specificity protein kinase CLK1 (Homo sapiens) (UniProt P49759). Conditions: Compound concentration 1000.0 nM.
The target in test [7] is Dual specificity tyrosine-phosphorylation-regulated kinase 2 (Homo sapiens) (UniProt Q92630). Conditions: Compound concentration 1000.0 nM.
In test [8] the test system is Epidermal growth factor receptor (Homo sapiens), P00533 [L858R,T790M]. As to conditions: Compound concentration 1000.0 nM.
The target in test [9] is Ephrin type-B receptor 1 (Homo sapiens) (UniProt P54762). As to conditions: Compound concentration 1000.0 nM.
Test [10] has as its target Ephrin type-B receptor 6 (Homo sapiens) (UniProt O15197). Conditions: Compound concentration 1000.0 nM.
In test [11] the target is Mitogen-activated protein kinase 1 (Homo sapiens) (UniProt P28482). Conditions: Compound concentration 1000.0 nM.
Test [12] concerns Receptor-type tyrosine-protein kinase FLT3 (Homo sapiens), P36888 [UNDEFINED MUTATION]. Conditions: Compound concentration 1000.0 nM.
Receptor-type tyrosine-protein kinase FLT3 (Homo sapiens), P36888 [UNDEFINED MUTATION], sequence (P36888 whole entry, looked up, change not shown): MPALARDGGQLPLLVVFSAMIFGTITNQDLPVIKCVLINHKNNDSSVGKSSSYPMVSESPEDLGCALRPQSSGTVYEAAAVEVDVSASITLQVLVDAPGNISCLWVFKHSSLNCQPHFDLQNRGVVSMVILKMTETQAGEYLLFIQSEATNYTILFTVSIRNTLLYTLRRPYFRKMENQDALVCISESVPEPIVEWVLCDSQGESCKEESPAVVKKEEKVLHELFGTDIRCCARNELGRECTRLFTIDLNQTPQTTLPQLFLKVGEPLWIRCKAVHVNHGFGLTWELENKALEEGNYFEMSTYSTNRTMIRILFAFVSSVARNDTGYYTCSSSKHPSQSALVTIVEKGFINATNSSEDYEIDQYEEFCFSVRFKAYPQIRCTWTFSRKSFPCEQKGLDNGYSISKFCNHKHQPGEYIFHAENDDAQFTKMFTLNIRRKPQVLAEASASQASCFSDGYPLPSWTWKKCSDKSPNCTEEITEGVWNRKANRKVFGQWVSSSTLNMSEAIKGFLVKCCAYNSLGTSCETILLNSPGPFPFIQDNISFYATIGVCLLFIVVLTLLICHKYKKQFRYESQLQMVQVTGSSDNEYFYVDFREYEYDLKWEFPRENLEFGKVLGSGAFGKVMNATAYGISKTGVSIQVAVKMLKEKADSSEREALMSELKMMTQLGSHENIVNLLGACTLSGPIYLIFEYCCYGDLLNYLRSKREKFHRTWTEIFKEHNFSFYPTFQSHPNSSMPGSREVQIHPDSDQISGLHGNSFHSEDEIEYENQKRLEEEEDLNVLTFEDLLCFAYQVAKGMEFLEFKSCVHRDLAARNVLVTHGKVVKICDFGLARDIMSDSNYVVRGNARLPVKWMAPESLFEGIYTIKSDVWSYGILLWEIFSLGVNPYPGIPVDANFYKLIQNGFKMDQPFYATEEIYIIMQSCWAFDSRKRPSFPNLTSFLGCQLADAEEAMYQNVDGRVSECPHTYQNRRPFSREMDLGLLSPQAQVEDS
Test [13] concerns the target Rhodopsin kinase GRK7 (Homo sapiens) (UniProt Q8WTQ7). As to conditions: Compound concentration 1000.0 nM.
Test [14] has as its system Mast/stem cell growth factor receptor Kit (Homo sapiens), P10721 [D816H]. Conditions: Compound concentration 1000.0 nM.
The test system of test [15] is Mast/stem cell growth factor receptor Kit (Homo sapiens), P10721 [V559D,V654A]. As to conditions: Compound concentration 1000.0 nM.
The target in test [16] is Serine/threonine-protein kinase 10 (Homo sapiens) (UniProt O94804). As to conditions: Compound concentration 1000.0 nM.
The target of test [17] is Tyrosine-protein kinase Lyn (Homo sapiens) (UniProt P07948). As to conditions: Compound concentration 1000.0 nM.
Tyrosine-protein kinase Lyn (Homo sapiens), sequence (P07948 2-512 limits assumed): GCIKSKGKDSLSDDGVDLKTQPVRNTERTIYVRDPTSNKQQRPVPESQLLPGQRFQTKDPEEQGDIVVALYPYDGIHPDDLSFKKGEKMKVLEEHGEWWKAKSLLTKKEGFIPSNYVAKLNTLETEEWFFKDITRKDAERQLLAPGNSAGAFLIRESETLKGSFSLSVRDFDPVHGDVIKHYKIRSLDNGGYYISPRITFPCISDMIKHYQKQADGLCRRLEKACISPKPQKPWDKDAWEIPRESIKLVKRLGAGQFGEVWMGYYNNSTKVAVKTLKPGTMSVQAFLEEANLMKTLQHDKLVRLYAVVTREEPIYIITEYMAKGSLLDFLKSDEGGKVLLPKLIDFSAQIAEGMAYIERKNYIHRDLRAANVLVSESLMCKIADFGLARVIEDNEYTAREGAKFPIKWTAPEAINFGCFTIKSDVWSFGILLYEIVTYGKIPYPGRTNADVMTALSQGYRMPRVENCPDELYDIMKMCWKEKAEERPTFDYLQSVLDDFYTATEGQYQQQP
Test [18] deals with MAP kinase-activated protein kinase 5 (Homo sapiens) (UniProt Q8IW41). As to conditions: Compound concentration 1000.0 nM.
Test [19] deals with MAP/microtubule affinity-regulating kinase 4 (Homo sapiens) (UniProt Q96L34). As to conditions: Compound concentration 1000.0 nM.
Test [20] addresses Myosin-IIIb (Homo sapiens) (UniProt Q8WXR4). As to conditions: Compound concentration 1000.0 nM.
Test [21] concerns the target Serine/threonine-protein kinase Nek1 (Homo sapiens) (UniProt Q96PY6). As to conditions: Compound concentration 1000.0 nM.
For test [22], the target named is Serine/threonine-protein kinase Nek11 (Homo sapiens) (UniProt Q8NG66). As to conditions: Compound concentration 1000.0 nM.
Serine/threonine-protein kinase Nek11 (Homo sapiens), sequence (Q8NG66 whole entry): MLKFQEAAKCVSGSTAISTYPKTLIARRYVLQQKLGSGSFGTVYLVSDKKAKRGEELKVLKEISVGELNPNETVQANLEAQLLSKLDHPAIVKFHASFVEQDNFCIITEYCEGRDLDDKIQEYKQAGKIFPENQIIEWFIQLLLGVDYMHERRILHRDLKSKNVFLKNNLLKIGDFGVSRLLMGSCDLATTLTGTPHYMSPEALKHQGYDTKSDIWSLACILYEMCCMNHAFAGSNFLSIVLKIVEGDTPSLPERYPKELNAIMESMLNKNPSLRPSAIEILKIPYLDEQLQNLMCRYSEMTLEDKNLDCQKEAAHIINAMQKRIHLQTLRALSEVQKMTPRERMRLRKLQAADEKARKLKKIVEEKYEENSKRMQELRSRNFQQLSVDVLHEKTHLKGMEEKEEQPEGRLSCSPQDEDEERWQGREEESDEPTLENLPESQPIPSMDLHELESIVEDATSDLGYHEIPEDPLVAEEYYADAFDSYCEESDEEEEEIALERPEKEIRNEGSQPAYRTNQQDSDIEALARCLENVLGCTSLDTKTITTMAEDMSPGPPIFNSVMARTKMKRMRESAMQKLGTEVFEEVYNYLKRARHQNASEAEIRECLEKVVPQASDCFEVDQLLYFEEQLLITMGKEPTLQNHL
Test [23] deals with Serine/threonine-protein kinase PAK 6 (Homo sapiens) (UniProt Q9NQU5). Conditions: Compound concentration 1000.0 nM.
Test [24] has as its target Cyclin-dependent kinase 2 homolog (Plasmodium falciparum (isolate 3D7)) (UniProt P61075). Conditions: Compound concentration 1000.0 nM.
For test [25], the system named is Phosphatidylinositol 4,5-bisphosphate 3-kinase catalytic subunit alpha isoform (Homo sapiens), P42336 [C420R]. Conditions: Compound concentration 1000.0 nM.
Test [26] concerns Phosphatidylinositol 4,5-bisphosphate 3-kinase catalytic subunit alpha isoform (Homo sapiens), P42336 [H1047Y]. As to conditions: Compound concentration 1000.0 nM.
Test [27] has as its target Phosphatidylinositol 4,5-bisphosphate 3-kinase catalytic subunit beta isoform (Homo sapiens) (UniProt P42338). Conditions: Compound concentration 1000.0 nM.
For test [28], the target named is Protein kinase C delta type (Homo sapiens) (UniProt Q05655). Conditions: Compound concentration 1000.0 nM.
The target of test [29] is RAF proto-oncogene serine/threonine-protein kinase (Homo sapiens) (UniProt P04049). Conditions: Compound concentration 1000.0 nM.
Test [30] has as its target Proto-oncogene tyrosine-protein kinase receptor Ret (Homo sapiens) (UniProt P07949). Conditions: Compound concentration 1000.0 nM.
Test [31] deals with Ribosomal protein S6 kinase alpha-1 (Homo sapiens) (UniProt Q15418). Conditions: Compound concentration 1000.0 nM.
For test [32], the target named is Serine/threonine-protein kinase Sgk2 (Homo sapiens) (UniProt Q9HBY8). Conditions: Compound concentration 1000.0 nM.
The target of test [33] is SRSF protein kinase 3 (Homo sapiens) (UniProt Q9UPE1). As to conditions: Compound concentration 1000.0 nM.
In test [34] the target is Serine/threonine-protein kinase 16 (Homo sapiens) (UniProt O75716). Conditions: Compound concentration 1000.0 nM.
Test [35] has as its target Activated CDC42 kinase 1 (Homo sapiens) (UniProt Q07912). Conditions: Compound concentration 1000.0 nM.
Test [36] concerns the target Serine/threonine-protein kinase 32B (Homo sapiens) (UniProt Q9NY57). As to conditions: Compound concentration 1000.0 nM.

AP2-associated protein kinase 1 (Homo sapiens), sequence (Q2M2I8 whole entry, looked up): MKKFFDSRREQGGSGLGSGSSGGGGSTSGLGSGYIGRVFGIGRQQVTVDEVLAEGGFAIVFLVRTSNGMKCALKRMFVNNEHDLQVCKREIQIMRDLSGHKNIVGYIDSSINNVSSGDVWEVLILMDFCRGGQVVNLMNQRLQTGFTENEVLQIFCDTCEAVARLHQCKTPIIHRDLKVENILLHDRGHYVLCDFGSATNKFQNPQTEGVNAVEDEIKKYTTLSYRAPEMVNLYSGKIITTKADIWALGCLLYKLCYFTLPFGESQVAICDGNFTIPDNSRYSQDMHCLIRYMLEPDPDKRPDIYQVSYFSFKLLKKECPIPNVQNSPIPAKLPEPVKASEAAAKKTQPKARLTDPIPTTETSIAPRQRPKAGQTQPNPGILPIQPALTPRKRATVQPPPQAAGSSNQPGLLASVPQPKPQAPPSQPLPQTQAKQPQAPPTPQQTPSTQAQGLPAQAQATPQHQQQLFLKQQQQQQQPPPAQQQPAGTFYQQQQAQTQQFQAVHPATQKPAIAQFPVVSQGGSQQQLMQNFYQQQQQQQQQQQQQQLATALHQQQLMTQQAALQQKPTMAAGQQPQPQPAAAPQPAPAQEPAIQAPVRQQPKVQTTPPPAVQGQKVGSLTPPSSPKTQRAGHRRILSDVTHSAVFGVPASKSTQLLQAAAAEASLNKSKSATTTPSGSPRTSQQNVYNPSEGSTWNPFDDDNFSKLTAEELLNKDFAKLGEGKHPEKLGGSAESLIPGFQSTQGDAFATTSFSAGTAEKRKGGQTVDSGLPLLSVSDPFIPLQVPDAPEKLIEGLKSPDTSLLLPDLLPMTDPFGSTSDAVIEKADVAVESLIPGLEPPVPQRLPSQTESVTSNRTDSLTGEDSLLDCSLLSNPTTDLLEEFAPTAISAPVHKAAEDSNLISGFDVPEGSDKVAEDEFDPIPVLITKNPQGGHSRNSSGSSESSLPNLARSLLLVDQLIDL
Serine/threonine-protein kinase Nek1 (Homo sapiens), sequence (Q96PY6 whole entry): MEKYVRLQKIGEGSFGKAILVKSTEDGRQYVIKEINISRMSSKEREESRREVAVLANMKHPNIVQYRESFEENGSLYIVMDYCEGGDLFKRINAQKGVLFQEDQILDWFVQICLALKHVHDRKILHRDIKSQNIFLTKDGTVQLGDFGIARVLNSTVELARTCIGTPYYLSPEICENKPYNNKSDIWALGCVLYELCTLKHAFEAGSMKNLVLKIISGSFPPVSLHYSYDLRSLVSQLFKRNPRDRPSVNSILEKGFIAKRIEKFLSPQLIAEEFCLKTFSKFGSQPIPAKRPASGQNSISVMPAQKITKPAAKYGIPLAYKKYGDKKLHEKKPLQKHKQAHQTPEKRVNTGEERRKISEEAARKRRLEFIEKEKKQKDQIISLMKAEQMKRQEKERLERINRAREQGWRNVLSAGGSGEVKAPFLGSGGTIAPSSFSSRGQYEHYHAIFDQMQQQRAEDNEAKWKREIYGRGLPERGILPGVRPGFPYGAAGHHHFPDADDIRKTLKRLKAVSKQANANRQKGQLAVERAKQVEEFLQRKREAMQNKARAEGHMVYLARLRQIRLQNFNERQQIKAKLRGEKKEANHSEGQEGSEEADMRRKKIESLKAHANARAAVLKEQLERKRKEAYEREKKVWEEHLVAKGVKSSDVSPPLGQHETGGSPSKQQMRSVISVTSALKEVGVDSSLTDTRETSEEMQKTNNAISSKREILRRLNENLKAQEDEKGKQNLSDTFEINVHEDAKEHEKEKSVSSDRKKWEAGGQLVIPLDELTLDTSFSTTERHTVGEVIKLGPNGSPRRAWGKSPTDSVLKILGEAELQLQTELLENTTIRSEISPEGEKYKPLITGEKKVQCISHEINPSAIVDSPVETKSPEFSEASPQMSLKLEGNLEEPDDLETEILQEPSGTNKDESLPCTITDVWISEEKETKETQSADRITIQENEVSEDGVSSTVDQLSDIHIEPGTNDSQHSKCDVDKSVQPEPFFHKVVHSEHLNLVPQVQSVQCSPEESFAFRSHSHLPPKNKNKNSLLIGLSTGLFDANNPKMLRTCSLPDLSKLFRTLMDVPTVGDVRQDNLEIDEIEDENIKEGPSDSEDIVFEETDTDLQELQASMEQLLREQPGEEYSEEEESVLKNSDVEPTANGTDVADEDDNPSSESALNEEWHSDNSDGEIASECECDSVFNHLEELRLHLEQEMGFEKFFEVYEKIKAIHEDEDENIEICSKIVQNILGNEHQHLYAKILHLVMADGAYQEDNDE

As usually defined, the Ki is the equilibrium dissociation constant of an inhibitor or competing ligand from its target. Consider `CC(C)(C)OC(=O)N1CCCC1CNC1CCC(c2cc(F)ccc2F)(S(=O)(=O)c2ccc(Cl)cc2)CC1` (stereo unspecified) [GSI-NC], for which, in test [1], the inhibition constant (Ki) was 3.79 µM.

As to `O=S(=O)(NC1CCC(c2cc(F)ccc2F)(S(=O)(=O)c2ccc(Cl)cc2)CC1)C(F)(F)F` (stereo unspecified) [MRK-560], the residual activity in [2] was 96%; in [3] it was 100%; in [4], 100%; in test [5], 100%; in [6], 78%; in test [7] it was 100%. The residual activity in test [8] is 89%; in test [9], 100%; in test [10], 100%; in test [11], 100%; in [12], 97%; in [13] it was 100%. For the same compound, the residual activity in test [14] was 71%; in test [15] it was 88%; in [16] it was 100%; in test [17] it was 91%; in test [18], 93%; in test [19], 100%. Moreover, the residual activity is 100% in test [20]; 100% in test [21]; 100% in test [22]; 100% in test [23]; 100% in [24]; 36% in test [25]. Moreover, the residual activity in test [26] was 100%; in [27], 100%; in test [28] it was 100%; in test [29], 100%; in test [30], 92%; in test [31] it was 100%. Also, the residual activity in test [32] is 93%; in test [33], 100%; in [34] it was 97%; in test [35] it was 96%; in [36], 100%.
